US8680137B2, “Agents and methods for treating ischemic and other diseases” (Nono Inc., priority 2009, dated 2014)
Entries after “also recorded” stand apart in the source; their conditions may differ.

Legend:
[1] = system: Weri retinoblastoma cells; experiment: Cancer cell proliferation, Weri; format: cell-based; conditions: >20% inhibition at 48-96 hours, MTT, SRB, luminescence or BrDU
Method: To determine the breadth of efficacy in cancers, we examined the efficacy of a range of TRPM7 inhibitors for their ability to inhibit cell proliferation in cancer cell lines. Representative figures are included as examples.
Cells (Table 1) were grown to 70% confluency, trypsinized, counted, and seeded in 96-well flat-bottom plates at a final concentration of 2.5×10^3-5.0×10^3 cells/well in growth media containing 5% FBS (Day 0). Other well sizes and cell densities were used successfully as well. Cells were allowed to incubate in growth media for 24 hours to allow for maximum adhesion. Treatment with the test agent began on Day 1 and continued for 72 hours either with or without retreatment. At the 72 hour time point, viable cell numbers are quantified by the CellTiter-Glo® cell viability assay as described above, or using standard MTT, SRB or BrDU assays. Experiments were repeated at least twice with the same concentrations to determine growth inhibitory activity.
Data Collection—For the cell proliferation studies, data from each experiment was collected and expressed as % Cell Growth using the following calculation: % Cell Growth=(ftest/fvehicle)×100 Where ftest is the luminescent signal of the tested sample, and fvehicle is the luminescence of the vehicle in which the drug is dissolved (or appropriate measure for the other viability/proliferation measures). Dose response graphs and IC50 values were generated using standard software using the following variable slope equation: […]

TRPM7 = TRPM7 (Mus musculus, UniProt Q923J1); experiment: Whole-cell patch clamp recording of TRPM7 currents in HEK293 cells expressing TRPM7; conditions: for TRPM7 currents, applied intracellularly: in intracellular recording fluid, final concentration 2 mM, 10-20 minutes; for TRPM7 currents, extracellular application: tested at 0.3, 1, 3, 10 and 30 μM
Method: Whole-cell patch clamp recordings were used essentially as described to test the TRPM7 inhibitors in HEK293 cells, H9c2 cardiomyocytes and cultured neurons. Each test compound was tested at 0.3, 1, 3, 10 and 30 μM, or as high as solubility permits.
To assess whether the M-compounds were inhibiting TRPM7 currents from an intracellular or extracellular location, M21 and M6 were dissolved in DMSO at 10 mM as stock, then diluted into intracellular recording fluid (ICF) to final concentration of 2 mM Immediately start recording of the TRPM7 like currents to RAMP change of membrane potentials after making the whole cell. Recording lasts for 10-20 minutes to compare the currents between control and test group.

[2] = system: primary cultured mouse cortical cells; experiment: OGD-induced anoxic death in murine primary neuronal cell cultures, PI fluorescence; format: cell-based; conditions: 1 to 3 hours OGD, with or without MCN, applied prior to or following OGD
Method: TRPM7 inhibitors were tested for their ability to reduce anoxic death in murine primary neuronal cell cultures subjected to 1 to 3 hours of OGD. This assay was generally performed as described by Aarts et al (2003). In brief, mixed cortical cultures enriched with neurons (85%) were prepared and used for experiments after 12-14 days in vitro. The cultures were transferred to an anaerobic chamber containing 5% CO2, 10% H and 85% N2. Cultures were washed 3× with 500 μl deoxygenated glucose free bicarbonate solution and maintained anoxic for the appropriate duration at 37° C. OGD was terminated by washing the cultures with oxygenated glucose-containing bicarbonate solution, and the cultures were further maintained 1-24 hours in a humidified 5% CO2 atmosphere. Cell death wash generally measured by fluorescence measurement of PI (50 ug/ml) in a multiwall plate reader (CytoFluor II, Perseptive Biosystems).

H9c2 cells = experiment: OGD-induced cell death in H9c2 cardiomyocytes, PI uptake; format: cell-based, rat; conditions: for resilience to OGD: 0.05-5.0 μM; for protection against OGD-induced death, pre-treatment: pre-treatment before OGD
Method: The rat cardiomyoblast cell line H9c2 was obtained from the American Type Culture Collection (CRL-1446) and cultured in Dulbecco's Modified Eagle Medium supplemented with 10% (v/v) heat-inactivated fetal bovine serum and 1% antibiotic-antimycotic. Cells were grown in an atmosphere of […]/5% CO2 in a humidified incubator.
H9c2 cells were made anoxic by replacing the medium with de-oxygenated Ischemic buffer (in mM: 1.13 CaCl2, 5 KCl, 0.3 KH2PO4, 0.5 MgCl2, 0.4 MgSO4, 128 NaCl, 10 HEPES) and by transferring them to an anaerobic chamber (5% CO2, 10% H2, 85% N2) for 6 hrs or 16 hrs at 37° C. OGD was terminated by washing the cells with oxygenated glucose-containing Control buffer (in mM: 1.13 CaCl2, 5 KCl, 0.3 KH2PO4, 0.5 MgCl2, 0.4 MgSO4, 128 NaCl, 10 HEPES 10 Glucose). Cultures were maintained for another 2 hrs at 37° C. in a humidified 5% CO2 atmosphere. Normoxic cells were maintained in Control buffer for the duration of the experiment.
Cell death was determined by fluorescence measurements of PI (5 μg/ml) using a multiwell plate fluorescence scanner. The fraction of dead cells in each culture was calculated as: fraction dead=(Ft−F0)/Fmax where Ft=PI fluorescence at 2 hrs post-OGD, F0=initial PI fluorescence immediately after the OGD treatment, and Fmax=PI fluorescence of the same cultures following 20 mins incubation in 1% TritonX-100.
H9c2 cells were cultured and subjected to OGD as described supra. FIG. 71 panels A and B show the results of exposure to M21 or M5 for 24 hours following 6 hours of OGD. FIG. 71 panels C and D show the results of H9c2cells were treated with either 1 mM Mg^2+, 5 μM M6, M11 (acute treatment) during the anoxic and recovery periods, or 1 μM nifedipine. Results are presented as mean±SEM (n=4).

retinal explants = experiment: OGD in cultured ex vivo retinal explants; format: cell-based, rat; conditions: 1 hr OGD
Method: The ability of TRPM7 inhibitors to protect other types of cell cultures following exposure to anoxia, including non-neuronal cell cultures, has also been tested. In general, cultures of growing cells are exposed to a 1-6 hour period of anoxia, followed by addition of a TRPM7 at a range of concentrations upon removal from anoxic conditions. […] This implies that TRPM7 inhibitors may be useful both as a treatment for anoxic damage to patients presenting symptoms of a disorder associated with anoxic damage, or as a preventative measure. Such preventative measures can be chronic, such as treatment to protect against damage from heart attacks or strokes, or acute, to be given prior to or during surgical procedures, which may include but not be limited to procedures that involve endovascular invasion and have the possibility of dislodging material that may block blood flow through arteries. Other types of preventative measures can include the reduction of anoxic damage associated with cardiovascular issues (heart attack, myocardial infarction, acute ischemic attacks, atrial fibrillation, etc), brain disorders (stroke, neurotrauma, etc), diabetic disorders (blindness, deafness, neuropathy), retinal/eye disorders (glaucoma, macular degeneration, blindness), aural disorders (deafness, progressive deafness, hearing loss), muscle disorders (weakness, myodegenerative disease, disorders associated with mitochondrial depletion), and organ disorders (kidney, lung, liver disorders associated with ischemia or anoxic damage).
Acute and chronic retinal ischemia are major causes of blindness. Retinal damage from glaucoma, also termed “slow excitotoxicity” afflicts millions of people each year and is the second leading cause of blindness worldwide (after cataracts). Diabetic retinopathy is also very common, afflicting about 40% of diabetics and, while less commonly producing complete blindness, is a leading cause of visual impairment. The retina is an extension of the CNS, and was the first organ in which excitotoxicity was described. […]

Sequence of TRPM7 (Q923J1 whole entry): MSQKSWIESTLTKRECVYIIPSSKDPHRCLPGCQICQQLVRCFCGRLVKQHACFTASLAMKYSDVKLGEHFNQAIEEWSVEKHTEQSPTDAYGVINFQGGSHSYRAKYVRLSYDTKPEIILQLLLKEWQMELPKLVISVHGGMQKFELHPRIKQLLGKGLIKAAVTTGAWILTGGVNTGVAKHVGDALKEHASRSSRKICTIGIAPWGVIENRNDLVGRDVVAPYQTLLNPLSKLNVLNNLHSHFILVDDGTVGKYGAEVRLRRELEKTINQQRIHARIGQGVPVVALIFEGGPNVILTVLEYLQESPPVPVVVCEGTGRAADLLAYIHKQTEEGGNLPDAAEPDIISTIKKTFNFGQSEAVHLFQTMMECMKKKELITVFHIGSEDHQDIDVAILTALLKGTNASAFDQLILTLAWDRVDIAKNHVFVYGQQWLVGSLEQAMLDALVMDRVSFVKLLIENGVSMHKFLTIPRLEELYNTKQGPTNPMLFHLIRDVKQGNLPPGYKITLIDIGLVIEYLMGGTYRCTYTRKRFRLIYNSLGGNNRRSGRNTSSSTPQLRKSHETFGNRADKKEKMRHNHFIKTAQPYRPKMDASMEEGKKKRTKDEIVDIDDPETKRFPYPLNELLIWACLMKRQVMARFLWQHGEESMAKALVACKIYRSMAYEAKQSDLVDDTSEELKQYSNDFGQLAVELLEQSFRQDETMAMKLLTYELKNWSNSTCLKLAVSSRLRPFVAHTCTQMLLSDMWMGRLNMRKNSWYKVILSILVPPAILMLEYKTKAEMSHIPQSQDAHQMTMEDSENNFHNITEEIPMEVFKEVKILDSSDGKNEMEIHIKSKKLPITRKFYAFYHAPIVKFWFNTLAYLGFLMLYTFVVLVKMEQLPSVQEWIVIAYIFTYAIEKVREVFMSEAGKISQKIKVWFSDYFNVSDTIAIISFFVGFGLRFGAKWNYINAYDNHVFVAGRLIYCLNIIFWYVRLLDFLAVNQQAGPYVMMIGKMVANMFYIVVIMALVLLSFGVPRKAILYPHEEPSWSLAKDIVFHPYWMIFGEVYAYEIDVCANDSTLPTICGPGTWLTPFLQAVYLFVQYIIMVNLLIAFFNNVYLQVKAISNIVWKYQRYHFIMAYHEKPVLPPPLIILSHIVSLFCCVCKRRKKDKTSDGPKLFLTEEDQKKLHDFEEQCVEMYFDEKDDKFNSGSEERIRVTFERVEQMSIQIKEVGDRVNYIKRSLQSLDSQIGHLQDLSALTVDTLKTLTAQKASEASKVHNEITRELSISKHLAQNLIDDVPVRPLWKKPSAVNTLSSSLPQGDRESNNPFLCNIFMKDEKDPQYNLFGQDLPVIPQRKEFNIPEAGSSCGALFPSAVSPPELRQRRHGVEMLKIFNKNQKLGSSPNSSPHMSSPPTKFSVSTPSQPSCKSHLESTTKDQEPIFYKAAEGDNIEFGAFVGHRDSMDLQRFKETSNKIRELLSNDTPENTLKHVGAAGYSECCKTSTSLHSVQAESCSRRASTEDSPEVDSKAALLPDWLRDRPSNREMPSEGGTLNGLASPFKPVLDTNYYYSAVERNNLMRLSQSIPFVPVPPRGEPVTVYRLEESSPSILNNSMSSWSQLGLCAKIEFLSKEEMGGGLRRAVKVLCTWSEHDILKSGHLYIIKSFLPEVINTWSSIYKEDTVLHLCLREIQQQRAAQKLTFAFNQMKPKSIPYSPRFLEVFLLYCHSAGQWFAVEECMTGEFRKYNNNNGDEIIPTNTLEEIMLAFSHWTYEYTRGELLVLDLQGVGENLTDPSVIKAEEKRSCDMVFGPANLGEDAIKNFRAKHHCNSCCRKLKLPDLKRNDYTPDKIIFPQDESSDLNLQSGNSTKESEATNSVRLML

| SMILES | Demonstrated Reduction of Proliferation at or below 10 μM Inhibitor concentration [1] | TRPM7 currents, applied intracellularly (TRPM7) | TRPM7 currents, extracellular application (TRPM7) | TRPM7 currents, extracellular application (TRPM7; listed as 21) | protection from anoxic death after OGD [2] | resilience to OGD (H9c2 cells) | survival / resilience following exposure to OGD (retinal explants) | TRPM7 currents, extracellular application (TRPM7; listed as 6) | protection against OGD-induced death, pre-treatment (H9c2 cells) | TRPM7 currents, extracellular application (TRPM7; listed as 11) |
| --- | --- | --- | --- | --- | --- | --- | --- | --- | --- | --- |
| Cc1c(Cc2ccc(Cl)c(Cl)c2)c(=O)oc2cc(O)ccc12 [Compound M21] | Weri retinoblastoma | do not affect TRPM7 currents | highest level of inhibition | inhibited ion currents through TRPM7 | protection of cultures from anoxic death is observed | enhanced their resilience to OGD | promote survival; also recorded: enhanced their resilience to OGD |  |  |  |
| COc1cc2c(cc1OC)C(c1sc3ccccc3c1Cl)=NCC2 [Compound M6] | Weri retinoblastoma | do not affect TRPM7 currents | reduces current through the TRPM7 channel |  | protection of cultures from anoxic death is observed | enhanced their resilience to OGD | enhanced their resilience to OGD | inhibited ion currents through TRPM7 | comparable result to treatment after the onset of anoxia |  |
| O=C(Nc1ccc(F)cc1)C(Sc1ccc(Cl)cc1)c1ccccc1 (stereo not shown) [Compound M11] | Weri retinoblastoma |  | highest level of inhibition |  | protection has been demonstrated | enhanced their resilience to OGD | promote survival |  | less robust rescue of the OGD-induced death | inhibited ion currents through TRPM7 |
